This note sets out measurements from ChEMBL document CHEMBL3853345, “Gabosines P and Q, new carbasugars from Streptomyces sp. and their α-glucosidase inhibitory activity” (Bioorg Med Chem Lett, 2016).

Test [1] can be described thus: Inhibition of alpha-glucosidase (unknown origin) assessed as reduction in PNP release using PNPG as substrate preincubated for 10 mins followed by substrate addition measured after 40 mins by spectrophotometric method. Also on record: species or system Homo sapiens.
The species named for test [2] is Homo sapiens. The experiment in a line: Potency index, ratio of acarbose IC50 to compound IC50 for alpha-glucosidase (unknown origin).

For `C[C@H]1O[C@H](O[C@H]2[C@H](O)[C@@H](O)[C@@H](O[C@H]3[C@H](O)[C@@H](O)C(O)O[C@@H]3CO)O[C@@H]2CO)[C@H](O)[C@@H](O)[C@@H]1N[C@H]1C=C(CO)[C@@H](O)[C@H](O)[C@H]1O` (stereo partly drawn) [ACARBOSE], the IC50 (commonly the concentration at which inhibition is half-maximal) in test [1] amounted to 663 µM.

As to `CC(=O)O[C@H]1C=C(CO)C(=O)[C@H](O)[C@H]1O`, the IC50 in test [1] is 9.07 µM. In addition, the Ratio IC50 in test [2] stood at 70.
